How the values were obtained:
[1] = test system: CHO cells (subclone DG44); assay: Growth of CHO cells in medium with keto leucine instead of L-leucine; assay type: cell-based, Chinese hamster; conditions: keto leucine as calcium salt instead of L-leucine, up to 178 mg/l, third passage
Protocol: (§1) Antibody producing chinese hamster ovary (CHO) cells (subclone DG44) were cultivated in shake flasks (125 ml or 250 ml with a culture volume of 50 ml or 100 ml respectively) in TC42/CHOMACS CD culture medium (TeutoCell AG) containing 8 mM L-glutamine. The culture medium was prepared by mixing two solutions. The first contained the conventional medium formulation (containing L-leucine and calcium chloride). In the second, the amino acid L-leucine in the culture medium was substituted by keto leucine (178 mg/l) as calcium salt in equimolar quantities. These solutions were mixed in different ratios. The growth of cells cultivated in the different mixtures was compared to cells cultivated in the conventional culture medium.
A corresponds to cells cultivated in a culture medium containing 178 mg/L of keto leucine, B to a mixture containing 30% (v/v) of the keto leucine solution, C to a mixture containing 5% (v/v) of the keto leucine solution and a reference containing only L-leucine.

[2] = test system: CHO cells (subclone DG44); assay: Antibody production in CHO cells with keto leucine instead of L-leucine; assay type: cell-based, Chinese hamster; conditions: keto leucine as calcium salt, reference normalized to 1.0
Protocol: as §1
The concentration of antibody produced by the cells cultivated in the reference culture medium containing L-leucine (Reference) were normalized to 1.0.

Compound: CC(C)CC(=O)C(=O)O [keto leucine, alpha-keto isocaproate]
- viable cell density versus reference medium with L-leucine [1]: slightly reduced
- antibody production with keto leucine instead of L-leucine [2]: L-leucine can be substituted
